Consider 1 substance from article PMC3424241, “The Octadecaneuropeptide ODN Protects Astrocytes against Hydrogen Peroxide-Induced Apoptosis via a PKA/MAPK-Dependent Mechanism” (PLoS ONE, 2012).

One assay concerns ERK1 and ERK2. The experiment in a line: ERK phosphorylation, Western blot. In kind it is cell-based, rat. On the procedure: (§1) Secondary cultures of rat cortical astrocytes were prepared as previously described [64]with minor modifications. Briefly, cerebral hemispheres from newborn Wistar rats were collected in DMEM/F12 (2∶1; v/v) culture medium supplemented with 2 mM L-glutamine, 1‰ insulin, 5 mM HEPES, 0.4% glucose and 1% of the antibiotic-antimycotic solution. The tissues were dissociated mechanically with a syringe equipped with a 1-mm gauge needle, and filtered through a 100-µm sieve (Falcon, Franklin Lakes, NJ, USA). Dissociated cells were resuspended in culture medium supplemented with 10% FBS, plated in 175-cm^2 flasks (Greiner Bio-one GmbH, Frickenhausen, Germany) and incubated at 37°C in a 5% CO2/[…] atmosphere. When cultures were confluent, astrocytes were isolated by shaking overnight the flasks on an orbital agitator. Adhesive cells were detached by trypsination and preplated for 5 min to discard contaminating microglial cells. Then, the non-adhering astrocytes were harvested and plated on 35-mm hydrophilic surface Petri dishes at a density of 3×10^5 cells/ml. For measurement of cell survival, caspase-3 activity and mitochondrial activity, cells were plated in hydrophilic surface 24-well plates at a density of 8×10^4 cells/ml. The cells were incubated at 37°C in a humid atmosphere (5% CO2). After 5 days (DIV5), more than 99% of the cells were labeled with antibodies against glial fibrillary acidic protein [65]. All experiments were performed on 5- to 7-day-old secondary cultures.
Cultured cells were incubated at 37°C for 1 h with fresh serum-free medium in the absence or presence of test substances. Total proteins were extracted with lysis buffer containing 1% Triton X-100, 50 mM Tris/HCl and 10 mM EDTA. After centrifugation (20,000 g, 4°C, 15 min), the proteins contained in the supernatant were precipitated by addition of ice-cold 10% TCA. The extract was centrifuged (15,000 g, 4°C, 15 min) and washed three times with alcohol/ether. The pellet was denatured (100°C, 5 min) in 50 mM Tris/HCl (pH 7.5) containing 20% glycerol, 0.7 M 2-mercaptoethanol, 0.004% bromophenol blue and 3% SDS, and then migrated on a 10% SDS-polyacrylamide gel electrophoresis (PAGE). After separation, proteins were electrically transferred onto nitrocellulose membrane (Amersham, Les Ulis, France). […] Signal was quantified using an image analysis system (Biocom, Les Ulis, France).

For assay [1], the system named is mitochondria of cultured astrocytes. In words: Mitochondrial membrane potential, JC-1 probe. The following applies: ODN 0.1 nM, 10 min pretreatment, then 1 h 300 µM H2O2. In kind it is cell-based, rat. On the procedure:
as §1, with “For measurement of cell survival, caspase-3 activity and mitochondrial activity, cells were plated in hydrophilic surface 24-well plates at a density of 8×10^4 cells/ml. The cells were incubated at 37°C in a humid atmosphere (5% CO2). After 5 days (DIV5), more than 99% of the cells were labeled with antibodies against glial fibrillary acidic protein [65]. All experiments were performed on 5- to 7-day-old secondary cultures.” left out
Cells seeded into 24-well plates were subjected to various treatments, incubated in the presence of the JC-1 probe (3 µl/ml) at 37°C for 15 min and then washed twice with PBS. Mitochondrial integrity was assessed with the JC-1 probe. […]

Another assay relates to Bcl-2. In words: Bcl-2 mRNA level, quantitative RT-PCR. The assay is classed as cell-based, rat. The following applies: ODN 0.1 nM. On the procedure: as §1, with “For measurement of cell survival, caspase-3 activity and mitochondrial activity, cells were plated in hydrophilic surface 24-well plates at a density of 8×10^4 cells/ml. The cells were incubated at 37°C in a humid atmosphere (5% CO2). After 5 days (DIV5), more than 99% of the cells were labeled with antibodies against glial fibrillary acidic protein [65]. All experiments were performed on 5- to 7-day-old secondary cultures.” left out
Cultured cells were incubated at 37°C for 1 h with fresh serum-free medium in the absence or presence of test substances. […] The amount of Bax and Bcl-2 cDNA in each sample was calculated by the comparative threshold cycle (Ct) method and expressed as 2^exp(−ΔΔCt) using glyceraldehyde-3-phosphate dehydrogenase as an internal control.

Assay [2] has as its system glutathione (GSH) in cultured astrocytes. In words: Intracellular glutathione content, mBCl fluorescence. In kind it is cell-based, rat. On the procedure: as §1
Reduced GSH was measured by using the thiol-reactive probe mBCl. At the end of the treatment period, the culture medium was removed and the cells were incubated with the mBCl probe (40 µM) at 37°C for 30 min and then washed twice with PBS. Fluorescence intensity was measured with excitation at 360 nm and emission at 485 nm, using a microplate reader (Bio-Tek FLx 800).

In another assay the test system is caspase-3. On the set-up: method as in PMID 21599667. The following applies: subnanomolar concentrations of ODN, cultured astrocytes; cited from earlier work.

A value given as a limit tells only on which side of the number the result lay.

In the assay with ERK1 and ERK2 (ODN 0.1 nM, after 60 min of treatment, percentages of control), “ODN: octadecaneuropeptide, endozepine derived from diazepam-binding inhibitor; endogenous ligand of central-type benzodiazepine and metabotropic receptors; synthesized by Fmoc procedure (QATVGDVNTDRPGLLDLK; Octadecaneuropeptide; UniProt P11030 34-51, looked up)” registered an ERK phosphorylation of 206%. In the assay with ERK1 and ERK2 (ODN 0.1 nM, time-course), the “time to detectable increase of ERK phosphorylation” value is given as at most 20 min. Moreover, the “effect on ERK phosphorylation” value with ERK1 and ERK2 (graded ODN 1 fM to 0.1 nM, 1 h, Western blot) is “concentration-related stimulation of ERK phosphorylation”. The “effect on H2O2-induced alteration of the mitochondrial membrane potential” value in assay [1] is listed as “suppressed this deleterious effect of H2O2 on the mitochondrial membrane potential”. In addition, the “effect on H2O2-induced inhibition of Bcl-2 expression” value in the assay on Bcl-2 (10 min pre-incubation, 1 h 300 µM H2O2) is “suppressed the inhibitory effect of H2O2 on Bcl-2 expression”. Moreover, the “effect on Bcl-2 mRNA levels, peptide alone” value in the assay with Bcl-2 (1 h, RT-PCR, 6 wells from three cultures) is recorded as “induced an increase of Bcl-2 mRNA levels by itself”. In addition, in assay [2] (ODN 0.1 nM pretreatment, 1 h 300 µM H2O2), the “effect on H2O2-induced depletion of GSH (mBCl fluorescence)” value is “prevented the depletion of mBCl fluorescence induced by H2O2”. The “effect on intracellular GSH content (mBCl fluorescence), peptide alone” value in assay [2] (graded ODN 1 fM to 0.1 nM, 1 h) is “dose-related increase in mBCl fluorescence intensity”. Also, in the assay with caspase-3, the “effect on H2O2-induced caspase-3 activation” value is “inhibit H2O2-induced caspase-3 activation”.
